Laboratory results taken from US8455528B2, “Imidazole derivatives useful as inhibitors of FAAH” (Merck Sharp & Dohme Corp., priority 2008, dated 2013).
pIC50: −log10 of the molar value.

What was measured:
[1] = biological target: T1, Human FAAH (Homo sapiens, UniProt O00519); assay: Human FAAH whole cell assay (FAAH_CHO cells); type: cell-based; details: FAAH inhibition, whole CHO cells expressing human FAAH
T1 construct: The full length FAAH was subcloned into the mammalian expression vector, pcDEF.neo; expressed in transfected cells
T1 sequence (O00519 1-579): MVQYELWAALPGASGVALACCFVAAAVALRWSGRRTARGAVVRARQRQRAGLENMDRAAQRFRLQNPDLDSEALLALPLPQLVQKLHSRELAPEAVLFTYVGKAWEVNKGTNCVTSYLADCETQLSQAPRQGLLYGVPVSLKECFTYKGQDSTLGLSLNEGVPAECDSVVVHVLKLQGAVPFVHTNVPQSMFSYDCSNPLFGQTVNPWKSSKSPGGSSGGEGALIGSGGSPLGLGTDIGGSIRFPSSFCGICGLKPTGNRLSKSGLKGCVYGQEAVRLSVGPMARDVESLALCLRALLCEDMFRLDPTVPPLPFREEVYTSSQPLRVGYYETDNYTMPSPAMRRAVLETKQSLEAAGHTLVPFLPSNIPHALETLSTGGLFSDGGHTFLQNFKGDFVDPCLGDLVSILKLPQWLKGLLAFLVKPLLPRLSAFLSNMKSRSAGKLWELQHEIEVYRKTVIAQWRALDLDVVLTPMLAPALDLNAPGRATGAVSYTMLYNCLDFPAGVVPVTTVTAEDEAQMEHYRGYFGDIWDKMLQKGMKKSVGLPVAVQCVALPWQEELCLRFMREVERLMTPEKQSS
Description: To assist in assay development stable cell lines for human, murine and rat full length FAAH were developed. Human FAAH cDNA (Accession No: NM_001441.1) was purchased from Origene (Rockville, Md.). The full length FAAH was subcloned into the mammalian expression vector, pcDEF.neo, using XbaI and EcoRI restriction sites and used for stable cell line generation.
(§1) Murine (accession number NM_010173) and Rat FAAH (accession number NM_024132) was amplified by reverse transcriptase polymerase chain reaction (RT-PCR) from brain cDNA (BD Biosciences, San Jose, Calif.) using primers 1 and 2 or primers 1 and 3 respectively (see Table). The resulting PCR product was ligated into pCR4 TOPO and DNA sequence confirmed. The full length murine FAAH was subcloned into the mammalian expression vector, pcDEFneo using either EcoRI (murine) or KpnI and EcoRI (rat) restriction sites. Chinese hamster ovary cells (CHO) were transfected following manufacturers protocol (AMAXA). Forty eight hours post transfection, cells were trypsinized and transferred to 96 well plates in Iscove's DMEM media supplemented with 2 mM Glutamine, 10% fetal calf serum, 1 mg/ml geneticin and HT Supplement (0.1 mM sodium hypoxanthine, 0.016 mM thymidine) in order to isolate single clones. Following selection in geneticin, individual clones were selected and FAAH activity was assessed using a whole cell fluorescent anandamide assay, modified from Ramarao et al (2005). Following removal of tissue culture media cells were dislodged following addition of Cellstripper (Mediatech, Inc. Manassas, Va.) and transferred to 96 well black clear bottom assay plate, centrifuged at 1,000 rpm for 3 mins and media removed and replaced with assay buffer (50 mM Tris pH8.0, 1 mM EDTA, 0.1% fatty acid free BSA). The reaction was initiated by addition of fluorescent substrate, AMC Arachidonoyl Amide (Cayman Chemical, Ann Arbor, Mich.) to 1 μM and reaction allowed to proceed for 2 hours at room temperature. Release of fluorescence was monitored in a CytoFluor Multiplate Reader. Cells expressing the highest amount of FAAH activity were selected for study with FAAH inhibitors.
(§2) (American Radiolabeled Chemicals; 1 mCi/ml) with FAAH (Life Sciences (1995), 56, 1999-2005 and Journal of Pharmacology and Experimented Therapeutics (1997), 283, 729-734), Analytical. Biochemistry (2003), 318, 270-5. In addition, routine assays were performed monitoring hydrolysis of arachidonyl-7-amino-4-methylcoumarin amide (AAMCA) by following increase in fluorescence upon release of 7-amino 4-methyl coumarin (λEX=355 nm, (λEM=460 nm). Analytical. Biochemistry (2005). 343, 143-51
(§3) Assays are performed on either cell lysate or microsome fractions prepared as described or in whole cell format employing either the fluorescent substrate AAMCA (Cayman chemical, Ann Arbor, Mich.) or ^3H-anandmaide ([ETHANOLAMINE-1-3H] American Radiolabeled Chemicals; 1 mCi/ml). The cell lysate or microsome assay is performed in Costar black wall, clear bottom plates by adding FAAH_CHO (whole cell, cell lysate or microsome) in assay buffer (50 mM Phosphate, pH 8.0, 1 mM EDTA, 200 mM KCl, 0.2% glycerol, 0.1% fatty acid free BSA) to each well, followed by either DMSO or compound and allowed to incubate at 22-25° C. for fifteen minutes. AAMCA substrate was used to achieve a final concentration of 1 μM and reaction allowed to proceed at room temperature for 1-3 hours. Fluorescent release as a measure of FAAH activity was monitored by reading the plate in a CytoFluor Multiplate Reader ([…]). Whole cell assay is conducted with cells harvested after rinsing tissue culture flasks three times with Ca^++Mg^++ free PBS, incubating for 10 min in Enzyme free dissociation media and centrifuging for 5 minutes at 1,000 rpm in table top centrifuge. Cells are resuspended in assay buffer at desired cell number in (4×10^4 cells/assay in 96-well format; 1×10^4 cells/assay in 384-well format) and assayed as described.

[2] = biological target: T2, Rat FAAH (Rattus norvegicus, UniProt P97612); assay: Rat FAAH whole cell assay (FAAH_CHO cells); type: cell-based; details: FAAH inhibition, whole CHO cells expressing rat FAAH
T2 construct: expressed in transfected cells
T2 sequence (P97612 1-579): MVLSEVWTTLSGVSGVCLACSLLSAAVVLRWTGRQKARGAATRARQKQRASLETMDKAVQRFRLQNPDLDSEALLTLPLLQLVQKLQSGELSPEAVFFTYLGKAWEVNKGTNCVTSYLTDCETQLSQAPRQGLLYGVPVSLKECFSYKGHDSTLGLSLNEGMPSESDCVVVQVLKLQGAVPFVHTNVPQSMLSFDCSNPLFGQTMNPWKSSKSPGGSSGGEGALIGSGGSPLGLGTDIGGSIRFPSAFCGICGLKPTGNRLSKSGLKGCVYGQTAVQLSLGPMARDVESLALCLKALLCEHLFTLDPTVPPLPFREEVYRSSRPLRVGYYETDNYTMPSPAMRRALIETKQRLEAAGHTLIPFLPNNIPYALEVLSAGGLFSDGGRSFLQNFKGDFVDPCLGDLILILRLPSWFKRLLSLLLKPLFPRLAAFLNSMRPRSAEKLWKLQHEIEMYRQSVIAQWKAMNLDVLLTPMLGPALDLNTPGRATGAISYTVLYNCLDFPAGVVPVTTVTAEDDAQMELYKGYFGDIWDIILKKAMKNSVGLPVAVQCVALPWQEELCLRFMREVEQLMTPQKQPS
Description: as §1, §2, §3

| SMILES | pIC50 [1] | pIC50 [2] |
| --- | --- | --- |
| Cn1c(-c2ccccn2)nc(-c2ccc(-n3ccnn3)cc2)c1Sc1ccc(Cl)cc1 [Ex 66] | 7.28 | 7.50 |
| CC(C)c1nc(-c2ccc(S(C)(=O)=O)cc2)c(Sc2ccc(Cl)cc2)n1C [Ex 29, 5-[(4-Chlorophenyl)thio]-2-isopropyl-1-methyl-4-[4-(methylsulfonyl)phenyl]-1H-imidazole] | 6.32 | 6.98 |
| Cn1c(C2CCC2)nc(-c2ccc(S(C)(=O)=O)cc2)c1Sc1ccc(Cl)cc1 [Ex 14] | 6.97 | 6.84 |
| Cn1c(-c2ccccn2)nc(-c2ccc(-c3nnco3)cc2)c1Sc1ccc(Cl)cn1 [Ex 36, 5-Chloro-2-({1-methyl-4-[4-(1,3,4-oxadiazol-2-yl)phenyl]-2-pyridin-2-yl-1H-imidazol-5-yl}thio)pyridine] | 7.31 | 7.20 |
| CS(=O)(=O)c1ccc(-c2nc(C3CCC3)[nH]c2Sc2ccc(Cl)cc2)cc1 [Ex 13] | 5.52 | 6.15 |

More lines, now with the values ahead:

| pIC50 [1] | pIC50 [2] | SMILES |
| --- | --- | --- |
| 6.00 | 6.06 | Cn1c(-c2ccccn2)nc(-c2ccc(N)cc2)c1Sc1ccc(Cl)cc1 [Ex 98, 4-{5-[(4-Chlorophenyl)thio]-1-methyl-2-pyridin-2-yl-1H-imidazol-4-yl}aniline] |
| 5.53 | 5.92 | Cn1cnc(-c2ccc(C#N)cc2)c1Sc1ccc(Cl)cc1 [Ex 33, 4-{5-[(4-chlorophenyl)thio]-1-methyl-1H-imidazol-4-yl}benzonitrile] |
| 7.17 | 7.22 | Cn1c(-c2ccccn2)nc(-c2ccc(C(O)C(F)F)cc2)c1Sc1ccc(Cl)cc1 (stereo not drawn) [Ex 57, 1-(4-{5-[(4-Chlorophenyl)thio]-1-methyl-2-pyridin-2-yl-1H-imidazol-4-yl}phenyl)-2,2-difluoroethanol] |
| 7.07 | 7.52 | Cn1c(-c2ccccc2)nc(-c2ccc(C#N)cc2)c1Sc1ccc(Cl)cc1 [Ex 2, 4-{5-[(4-Chlorophenyl)thio]-1-methyl-2-phenyl-1H-imidazol-4-yl}benzonitrile] |
